{"source": "patent US20150343016A1", "about": "“CHEMICAL ENTITIES AND THERAPEUTIC USES THEREOF” (The Regents of the University of Colorado, a body corporate, priority 2010, published 2015)", "key": {"[1]": {"tested_on": "wild type Drosophila larvae", "experiment": "Drosophila larval survival to adulthood (eclosion), drug with and without IR, wild type", "assay_type": "in vivo", "details": "for effect on the killing effect of radiation (+IR versus +both): wild type", "description": "(§1) To validate the identification of Bouvardin from the primary screen, the effect of this molecule on Drosophila larvae alone or in combination with radiation were assessed (FIG. 12). The screen was performed using irradiated mutant larvae. Hits from the screen were defined as those that reduced the survival of IRRADIATED larvae compared to the population of drugs being tested (approximately 80 molecules at a time) or compared to DMSO controls in the re-test. A hit could therefore act by enhancing the effect of radiation, or by simply killing larvae as a single agent, or both. To distinguish among these possibilities, hits from the screen were re-tested against larvae with and without irradiation.\n(§2) In FIG. 12 survival after each treatment is expressed as the fraction of animals that emerged (“eclosed”) as viable adults. The averages have been normalized to the average fraction eclosed in no IR/drug control for the respective genotype. Error bars extend beyond fractional survival of 1.0 simply because of normalization. (A-C) Fraction eclosed for WT and grp and p53 mutants at 16 uM of Bouvardin, with and without IR. The data are averages of 3-8 biological replicates per sample. Dotted line on each graph denotes expected ‘fraction eclosed’ if drug and IR act additively. IR doses were 4000R for WT and grp and 3000R for p53 because of the higher radiation sensitivity of the latter. (D) Fraction eclosed for Minute mutants and yw controls after exposure to 0 (−IR) and 2000R (+IR) of X-rays. N ranged from 86-207 per genotype per treatment, in 3 biological replicates per sample. *=p<0.01; **=<0.001. 100R=1Gy. Error bar=1 standard deviation.\n(§3) The activity of Bouvardin in Drosophila alone or in combination with ionizing radiation (IR) was assessed. Drug concentrations of 10-20 μM were used to approximate the conditions of the original screen. Third instar larvae were irradiated and cultured on medium containing drug. The survival of larvae was quantified 10 days later by measuring the rate of eclosion into adulthood. […] For example, IR alone reduces the eclosion of p53 mutants to 0.63±0.05 and 10 μM of drug reduces it to 0.82±0.15. The combination of Bouvardin and IR reduces eclosion to 0.49, nearly the exact number expected (0.63±0.05×0.82±0.15=0.51±0.10) if the two treatments produced an additive effect. The expected eclosion for additive effect of drug and radiation are denoted with a white dotted line in each graph.\n(§4) Wild type flies were of the Sevelin stock. Mutants have been described before. p535A-1-4 results from targeted deletion of the gene, and is maintained and used as homogygotes. grpl (Chk1 mutants) results from a p-element insertion and is a genetic null. Homozygotes of the latter were identified by the lack of GFP marker on the balancer chromosome. Minute mutants were of the genotypes y[1]w[*]; P[w[+mC]=lacW]RpS131/CyO and P[lacW]RpL36G0471 w67c23/FM7a. Because Minute mutants were in yw or w background, y1w1 (Bloomington stock #1495) was used as ‘wild type’ control in these experiments.\nFeeding stage 3rd instar larvae were irradiated as previously described (2). Briefly, 120 hr old larvae were rinsed to remove food and passed through sizing sieves to obtain animals of uniform size. Larvae were placed in a Petri dish and irradiated using a TORREX X-ray generator, set at 115 kV and 5 mA (producing 2.4 Rads/sec or 1.44 Gy/min) Irradiated larvae were then cultured on cornmeal-agar media (2) containing drug or DMSO carrier. […]"}, "[2]": {"tested_on": "p53 mutant Drosophila larvae", "experiment": "Drosophila larval survival to adulthood (eclosion), drug with and without IR, p53 mutants", "assay_type": "in vivo", "details": "p53 mutants; for eclosion expected if the two treatments produced an additive effect: Bouvardin and IR", "description": "as §1, §2, §3, §4\nFeeding stage 3rd instar larvae were irradiated as previously described (2). Briefly, 120 hr old larvae were rinsed to remove food and passed through sizing sieves to obtain animals of uniform size. Larvae were placed in a Petri dish and irradiated using a TORREX X-ray generator, set at 115 kV and 5 mA (producing 2.4 Rads/sec or 1.44 Gy/min) Irradiated larvae were then cultured on cornmeal-agar media (2) containing drug or DMSO carrier. In all experiments using human cells, cells in 96-well plates were irradiated with a RS2000 Biological Irradiator (Rad Source Technologies, Inc.) delivering 1 Gy/min."}, "Det562 cells": {"tested_on": "Det562 cells", "experiment": "CellTiter-Glo Luminescent Cell Viability Assay, Bouvardin with Taxol, Det562", "assay_type": "cell-based, human", "details": "Det562"}, "FaDu cells": {"tested_on": "FaDu cells", "experiment": "CellTiter-Glo Luminescent Cell Viability Assay, Bouvardin with Taxol, FaDu", "assay_type": "cell-based, human", "description": "“Combination Index” computation. Combination Indices were calculated using CalcuSyn software (Biosoft), which uses the method of Chou and Talalay. This method first computes drug-induced effect using the Hill Equation: where E is the measured effect; C is the drug concentration; Emax is the full range of drug effect, usually at or near 100%; IC50 is the drug concentration producing the median effect of 50%; and n is the curve shape parameter describing the steepness of the concentration-effect relationship. The Chou and Talalay method then linearizes the Hill Equation by logarithmic transformation as: where fu is the fraction of cells left unaffected after drug exposure, fa is the fraction of cells affected by the exposure, C is the drug concentration used, Cm is the concentration to achieve the median effect, and n is the curve shape parameter. Cm and n are equivalent to IC50 and n, respectively, in the Hill Equation. The values of n (obtained from the slope), nlog(Cm) (obtained from the absolute value of the intercept), and, therefore, Cm are obtained by plotting log(fu−1−1) versus log(C). […]\nThe growth inhibitory effects of Bouvardin with Taxol were evaluated using CellTiter-Glo® Luminescent Cell Viability Assay (Promega G7570). […] Luminescence of each well was measured using an automated plate reader."}}, "data": [{"smiles": "COc1ccc(C[C@H]2C(=O)N[C@H](C)C(=O)N(C)[C@@H]3C(=O)N(C)[C@@H](Cc4ccc(O)c(c4)Oc4ccc(cc4)[C@H]3O)C(=O)N[C@@H](C)C(=O)N[C@H](C)C(=O)N2C)cc1", "note": "(stereo in doubt) [Bouvardin, bouvardin]", "values": [{"measurement": "effect on the killing effect of radiation (+IR versus +both)", "setting": "[1]", "value": "not wild type"}, {"measurement": "effect of drug alone on survival to adulthood", "setting": "[1]; wild type flies, bouvardin up to 100 μM, no IR", "value": "very little effect"}, {"measurement": "effect on the killing effect of radiation (+IR versus +both)", "setting": "[1]; listed as bouvardin", "value": "did not significantly reduce survival to adulthood"}, {"measurement": "manner in which drug and radiation act together", "setting": "[2]", "value": "additive manner"}, {"measurement": "eclosion (fraction eclosed, normalized to no IR/drug control)", "setting": "[2]; 10 μM of drug alone", "value": "0.82±0.15"}, {"measurement": "eclosion", "setting": "[2]; 10 mM of drug alone", "value": 0.82}, {"measurement": "eclosion expected if the two treatments produced an additive effect", "setting": "[2]", "value": "0.51±0.10"}, {"measurement": "eclosion expected if the two treatments produced an additive effect", "setting": "[2]; listed as bouvardin", "value": 0.50}, {"measurement": "eclosion (fraction eclosed, normalized to no IR/drug control)", "setting": "[2]; combination of Bouvardin and IR", "value": 0.49}, {"measurement": "effect on the killing effect of radiation (+IR versus +both)", "setting": "[2]; drug 10-20 μM", "value": "increased the killing effect of radiation in a statistically significant manner"}, {"measurement": "interaction of Bouvardin with Taxol", "setting": "Det562 cells", "value": "synergy with Taxol over a wide range of concentrations"}, {"measurement": "Bouvardin concentration up to which synergy was seen when combined with taxol", "setting": "FaDu cells; Det562 and FaDu (FIG. 18)", "value": "up to 0.3 μM"}, {"measurement": "interaction of Bouvardin with Taxol", "setting": "FaDu cells; FaDu", "value": "synergy with Taxol over a wide range of concentrations"}]}]}
